Experimental data taken from patent US11752103B2, “Tramadol hydrochloride solution” (Athena Bioscience, LLC, priority 2019, dated 2023).
Structures can show the parent of a compound that is named as a salt.

Columns and labels:
μ-opioid receptors = conditions: times more potent than tramadol; cited from earlier work
[1] = animal models; times more potent than tramadol; cited from earlier work
[2] = Physicochemical data of tramadol hydrochloride
Protocol: Therefore, the Ex. 2 solution was evaluated for further studies.

| SMILES | potency in μ-opioid binding relative to tramadol (μ-opioid receptors) | potency in producing analgesia relative to tramadol [1] | pH of tramadol hydrochloride [2] | pKa [2] | solubility ([2]; pH of about 4.5) |
| --- | --- | --- | --- | --- | --- |
| CN(C)C[C@@H]1CCCC[C@@]1(O)c1cccc(O)c1 (relative stereo) [ODMT, 3-[cis-2-[(dimethylamino)methyl]-1-hydroxycyclohexyl]-phenol] | 200 times | up to 6 times | – | – | – |
| COc1cccc(C2(O)CCCCC2CN(C)C)c1 (mixture of isomers) [tramadol hydrochloride, (±) cis-2-[(dimethylamino)methyl]-1-(3-methoxyphenyl)cyclohexan-1-ol, hydrochloride] | – | – | about 5.3 | 9.8 | freely soluble |
